Data taken from US9102623B2, “Pyridinecarboxamides, useful-plant-protecting composition comprising them and processes for their preparation and their use” (Bayer Cropscience AG, priority 2007, dated 2015).

Columns and labels:
Type in all cases: in vivo
[1] = system: barley; test: Post-emergence safener action in barley with the herbicide mesosulfuron-methyl; details: greenhouse, visual scoring of damage
Text: (§1) The damage to the plants is scored visually using a scale of 0-100%, in comparison to control plants:
(§2) 0%=no noticeable effect compared to the untreated plant
(§3) 100%=the treated plants dies.
(§4) Seeds or rhizome pieces of monocotyledonous and dicotyledonous harmful plants and crop plants are placed in sandy loam soil in plastic pots, covered with soil and cultivated in the greenhouse under good growth conditions. Alternatively, harmful plants encountered in paddy rice cultivation are cultivated in pots in which the surface of the soil is covered by up to 2 cm of water. Three weeks after sowing, the test plants are treated at the three-leaf stage. The herbicide/safener active compound combinations according to the invention, formulated as emulsion concentrates, and in parallel tests the individual active compounds formulated in a corresponding manner, are sprayed at various dosages at a water application rate of […] (converted) onto the green parts of the plants, and, after the test plants were left to stand in the greenhouse for about 2 to 3 weeks under optimum growth conditions, the effect of the preparations is scored visually in comparison to untreated controls. In the case of rice or harmful plants encountered in the cultivation of rice, the active compounds are also added directly to the irrigation water (application analogously to the so-called granule application) or sprayed onto the plants and into the irrigation water. […]

[2] = system: corn; test: Pre-emergence safener action in corn with the herbicide isoxaflutol; details: greenhouse, visual scoring after 3 to 4 weeks
Text: as §1, §2, §3
Seeds or rhizome pieces of monocotyledonous and dicotyledonous weed plants and crop plants were placed in sandy loam soil in plastic pots and covered with soil. The herbicide/safener active compound combinations according to the invention, formulated as suspension emulsion concentrates, and in parallel tests the individual active compounds formulated in a corresponding manner, were then, at various dosages at a water application rate of 600 to 800 l/ha (converted), applied to the surface of the covering soil.
After the treatment, the pots were placed in the greenhouse and kept under good growth conditions for the weeds and the crop plants. Visual scoring of the plant damage or emergence damage was carried out after the test plants had emerged after a test period of 3 to 4 weeks, in comparison to untreated controls.

[3] = system: corn; test: Post-emergence safener action in corn with the herbicide tembotrione; details: greenhouse, visual scoring of damage
Text: as §1, §2, §3, §4

Compound | safener action for the herbicide mesosulfuron-methyl [1] | safener action in combination with the herbicide isoxaflutol [2] | safener action for the herbicide tembotrione [3]
CCNC(=O)c1ccc(C(F)(F)F)[nH]c1=O [Compound 2] | good safener action | good safener action | 
O=C(NC1CCCCC1)c1ccc(C(F)(F)F)[nH]c1=O [Compound 19] |  | good safener action | 
C#CCNC(=O)c1ccc(C(F)(F)F)[nH]c1=O [Compound 39] |  | good safener action | 
COC(=O)CN(C)C(=O)c1ccc(C(F)(F)F)[nH]c1=O [Compound 72] |  | good safener action | 
CC(C)(C)NC(=O)c1ccc(C(F)(F)Cl)[nH]c1=O [Compound 122] |  | good safener action | 
C#CCNC(=O)c1ccc(C(F)(F)Cl)[nH]c1=O [Compound 153] | good safener action |  | good safener action
CCC(C)NC(=O)c1ccc(C(F)(F)Cl)[nH]c1=O (stereo not drawn) [Compound 155] | good safener action | good safener action | 
CCOC(CNC(=O)c1ccc(C(F)(F)Cl)[nH]c1=O)OCC [Compound 169] | good safener action |  | good safener action
COCC(C)NC(=O)c1ccc(C(F)(F)Cl)[nH]c1=O (stereo not drawn) [Compound 178] | good safener action |  | good safener action
CCONC(=O)c1ccc(C(F)(F)Cl)[nH]c1=O [Compound 193] | good safener action | good safener action | 
CONC(=O)c1ccc(C(F)(F)Cl)[nH]c1=O [Compound 194] | good safener action | good safener action | 
O=C(c1ccc(C(F)(F)Cl)[nH]c1=O)N1CCOCC1 [Compound 214] | good safener action |  | good safener action
O=C(c1ccc(C(F)(F)Cl)[nH]c1=O)N1CCCC1 [Compound 217] |  | good safener action | 
CC(C)NC(=O)c1ccc(C(F)F)[nH]c1=O [Compound 232, 6-Difluoromethyl-N-isopropyl-2-oxo-1,2-dihydropyridine-3-carboxamide] |  | good safener action | 
CCCC(C)NC(=O)c1ccc(C(F)F)[nH]c1=O (stereo not drawn) [Compound 271] |  | good safener action | 
NC(=O)c1ccc(C(F)(F)C(F)(F)F)[nH]c1=O [Compound 341, 2-Oxo-6-(pentafluoroethyl)-1,2-dihydropyridine-3-carboxamide] | good safener action | good safener action | good safener action
CC(C)NC(=O)c1ccc(C(F)(F)C(F)(F)F)[nH]c1=O [Compound 345] | good safener action |  | good safener action
C#CCNC(=O)c1ccc(C(F)(F)C(F)(F)F)[nH]c1=O [Compound 380] |  | good safener action | 

Compound | safener action for the herbicide mesosulfuron-methyl [1] | safener action in combination with the herbicide isoxaflutol [2] | safener action for the herbicide tembotrione [3]
CCC(CC)NC(=O)c1ccc(C(F)(F)C(F)(F)F)[nH]c1=O [Compound 392] | good safener action | good safener action | 
CCNC(=O)c1cc(Cl)c(C(F)(F)F)[nH]c1=O [Compound 457] | good safener action |  | good safener action
C=CCNC(=O)c1cc(Cl)c(C(F)(F)F)[nH]c1=O [Compound 489] | good safener action |  | good safener action
CCC(C)NC(=O)c1cc(Cl)c(C(F)(F)F)[nH]c1=O (stereo not drawn) [Compound 496] | good safener action |  | good safener action
CCCC(C)NC(=O)c1cc(Cl)c(C(F)(F)F)[nH]c1=O (stereo not drawn) [Compound 498] | good safener action |  | good safener action
NC(=O)c1cc(Br)c(C(F)(F)F)[nH]c1=O [Compound 909] | good safener action |  | good safener action
CCNC(=O)c1cc(Br)c(C(F)(F)F)[nH]c1=O [Compound 911] | good safener action |  | good safener action
CC(C)NC(=O)c1cc(Br)c(C(F)(F)F)[nH]c1=O [Compound 913] | good safener action |  | good safener action
C=CCNC(=O)c1cc(Br)c(C(F)(F)F)[nH]c1=O [Compound 943, N-Allyl-5-bromo-2-oxo-6-(trifluoromethyl)-1,2-dihydropyridine-3-carboxamide] | good safener action |  | good safener action
CCC(CC)NC(=O)c1cc(Br)c(C(F)(F)F)[nH]c1=O [Compound 960] | good safener action |  | good safener action
CCCNC(=O)c1cc(Br)c(C(F)(F)Cl)[nH]c1=O [Compound 1026] | good safener action |  | good safener action
CNC(=O)c1ccc(C(F)(F)C(F)F)[nH]c1=O [Compound 1368, N-Methyl-2-oxo-6-(1,1,2,2-tetrafluoroethyl)-1,2-dihydropyridine-3-carboxamide] |  | good safener action | good safener action
CCNC(=O)c1ccc(C(F)(F)C(F)(F)C(F)(F)F)[nH]c1=O [Compound 1597] |  | good safener action | good safener action
CCCNC(=O)c1ccc(C(F)(F)C(F)(F)C(F)(F)F)[nH]c1=O [Compound 1598, 6-(Heptafluoropropyl)-2-oxo-N-propyl-1,2-dihydropyridine-3-carboxamide] | good safener action |  | good safener action
CC(C)NC(=O)c1ccc(C(F)(F)C(F)(F)C(F)(F)F)[nH]c1=O [Compound 1599] | good safener action |  | good safener action
O=C(NC1CC1)c1ccc(C(F)(F)C(F)(F)C(F)(F)F)[nH]c1=O [Compound 1600] | good safener action |  | good safener action
CC(C)CNC(=O)c1ccc(C(F)(F)C(F)(F)C(F)(F)F)[nH]c1=O [Compound 1625] |  | good safener action | good safener action
CCC(C)NC(=O)c1ccc(C(F)(F)C(F)(F)C(F)(F)F)[nH]c1=O (stereo not drawn) [Compound 1636] | good safener action | good safener action | good safener action
